In patent US7166569B2, “Method for the prevention of transplant rejection” (priority 1994, dated 2007):

What was measured:
[1] = Experiment 1: administration of arginine (an HGH releaser) and DHEA to a human patient, fasting blood analysis; assay type: in vivo
Source text: A human patient was placed on a standardized regimen of nutrient intake for two weeks to establish a baseline prior to ingesting any HGH releasing agents. The evening prior to blood analysis, the same evening meal was consumed (salmon, potato, white wine, vegetables, and Caesar salad). Upon establishing basal values for glucose, insulin, somatomedin C (a marker for growth hormone), DHEA-sulfate, serum lipids, and testosterone, a daily regimen of ingesting 15 grams of arginine just before bedtime was instituted. This regimen was maintained for one week, after which a new baseline was obtained. The evening following this new baseline measurement, DHEA was ingested at a dose of 180 mg (two 90 mg capsules taken simultaneously) at the same time as the arginine. This was continued for one week and the baseline levels of metabolites were rechecked. Finally, for the last week, the arginine dose was administered every other day or at 7.5 g/day while DHEA levels were maintained. Thus, the data points are as follows: • 1: Baseline—begin 15 gm/day administration of arginine; • 2: Day 7—begin 180 mg/day DHEA; • 3: Day 14—begin 15 gm arginine every other day or 7.5 g/day; and • 4: Day 21—end of experiment, no arginine administered the previous night.

[2] = Independent experiment: IGF-1 level after arginine ingestion; assay type: in vivo; details: two hours after arginine ingestion; basal 223 ng/ml
Source text: This drop was sustained as long as arginine administration was continued. […] Others have also measured somatomedin C levels following arginine ingestion or infusion, and found them to be depressed despite good release of HGH. There is no explanation for this paradox, but it is not material to the fact that HGH is released by arginine and that released HGH does elevate insulin and that DHEA does block this insulin-elevating effect.

[3] = humans, arginine ingestion or infusion; cited from earlier work
[4] = Experiment 2: administration of HGH and DHEA, blood metabolite levels; assay type: in vivo, human
Experimental: As in the first experiment, a standard dietary regimen was followed the evening before each blood sample was collected. HGH administration was initiated one day after a baseline blood sample was drawn. HGH was injected subcutaneously at a dose of approximately 0.018 mg/kg/day, every other night, and was injected near midnight prior to blood collection the following morning. Blood was collected between 10:30 and 11:00 a.m. The second blood sample was taken on day 8, or just over 7 days after beginning HGH injections (4 injections in total to that time). After this second blood sample, a “wash out” period of two days was allowed prior to reinitiating injections according to the same schedule. On day 9, during the HGH “wash out” period, a priming dose of 200 mg of DHEA was taken in divided doses to prepare the patient for the HGH. The second round of injections was done simultaneously with the ingestion of two 100 mg capsules of DHEA, beginning on the evening of day 10. This regimen continued for a total of 4 HGH injections, culminating in the final injection on day 16 and blood sampling on day 17. Two hundred mg of DHEA were taken also on the nights between HGH injections, at the normal time. HGH injections were administered near midnight of the day stated.

[5] = cited from earlier work

## N=C(N)NCCC[C@H](N)C(=O)O [arginine]
[1]; 3 days of arginine, data not shown in FIG. 1
  insulin determination after only 3 days of arginine ingestion: normal insulin level
[1]; FIG. 5, sustained as long as arginine was continued
  somatomedin C (IGF-1) levels in response to oral arginine: DROP
[1]; fall in arginine ingestion, no drop in DHEA ingestion
  circulating level of DHEA-sulfate, point 4 versus point 3: fell
[1]; fasting serum, during introduction and tapering off of arginine
  glucose concentration: no change
[1]; point 2, day 7, 15 g/day arginine at bedtime, no DHEA
  fasting serum insulin rise in response to arginine ingestion: ~50%
[1]; point 2 versus point 1, arginine only, no DHEA ingested
  DHEA-sulfate, endogenous change: noticeable increase
[2]
  IGF-1 level after arginine ingestion: 166 ng/mL
[3]
  time for insulin to fall back to baseline after arginine: 1 to 2 h
  time to peak of insulin levels after arginine: ≤ 30 min

## HGH: recombinant or natural human growth hormone
[4]; HGH approx. 0.018 mg/kg/day s.c. every other night, day 8
  insulin rise prior to DHEA ingestion: 57%
[4]; HGH only
  DHEA-sulfate change: unaltered
  circulating DHEA levels, depression: a third
[4]; serum, by stage of experiment, baseline 6.6
  Insulin level: 10.4 uU/ml
[4]; serum, by stage of experiment, baseline 27.0
  IGF-1 level: 35.5 µg/dL
[4]; serum, by stage of experiment, baseline 146
  DHEA-sulfate level: 146 µg/dL
[4]; serum, by stage of experiment, baseline 360
  DHEA level: 240 ng/dL

## C[C@]12CC[C@H](O)CC1=CC[C@@H]1[C@@H]2CC[C@]2(C)C(=O)CC[C@@H]12 [DHEA, dehydroepiandrosterone]
[1]; day 21, DHEA maintained, arginine every other day, none the night before
  insulin level at point 4: returned to basal levels
[1]; point 3, day 14, 180 mg/day DHEA with continuing undiminished 15 g/day arginine
  fasting serum insulin, % of basal levels: 76%

## Chromium picolinate
[5]
  extension of the life span of animals: 50%
